Where a name gives a salt, the structure may show the parent alone. Where only a bound is given, the exact number is not on record here.

Usually IC50 stands for the point on the concentration scale where inhibition reaches its midpoint. As a reminder, the inhibition in vivo is how much of the control response was suppressed.

In data set [1] the target is T1, Prostaglandin G/H synthase 2 (Oryctolagus cuniculus, UniProt O02768).
T1 sequence (O02768 whole entry): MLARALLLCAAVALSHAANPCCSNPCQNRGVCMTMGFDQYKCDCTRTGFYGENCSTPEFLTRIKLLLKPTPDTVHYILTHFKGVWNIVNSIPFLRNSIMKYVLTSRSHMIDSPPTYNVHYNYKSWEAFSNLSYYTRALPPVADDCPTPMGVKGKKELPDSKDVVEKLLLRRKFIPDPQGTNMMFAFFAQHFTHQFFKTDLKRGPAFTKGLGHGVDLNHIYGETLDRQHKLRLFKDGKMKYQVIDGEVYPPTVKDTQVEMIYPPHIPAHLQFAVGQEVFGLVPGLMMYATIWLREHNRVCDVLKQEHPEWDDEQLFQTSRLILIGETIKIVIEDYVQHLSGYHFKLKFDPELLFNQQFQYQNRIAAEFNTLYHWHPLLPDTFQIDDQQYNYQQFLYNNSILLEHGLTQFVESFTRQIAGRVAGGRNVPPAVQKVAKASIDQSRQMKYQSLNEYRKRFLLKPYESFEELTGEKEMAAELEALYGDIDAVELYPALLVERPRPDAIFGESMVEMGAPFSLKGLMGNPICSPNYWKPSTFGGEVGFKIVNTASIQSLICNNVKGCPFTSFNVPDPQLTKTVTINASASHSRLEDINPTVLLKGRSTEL
The data set can be described thus: Inhibition of COX-2 in rabbit peripheral venous blood assessed as formation of 12-hydroxyheptadecatrienoic acid after 24 hrs in by HPLC presence of calcium ionophore […] and lipopolysaccharide. It is filed as tissue-based.

The target of data set [2] is T2, Prostaglandin G/H synthase 1 (Oryctolagus cuniculus, UniProt O97554).
T2 sequence (O97554 whole entry): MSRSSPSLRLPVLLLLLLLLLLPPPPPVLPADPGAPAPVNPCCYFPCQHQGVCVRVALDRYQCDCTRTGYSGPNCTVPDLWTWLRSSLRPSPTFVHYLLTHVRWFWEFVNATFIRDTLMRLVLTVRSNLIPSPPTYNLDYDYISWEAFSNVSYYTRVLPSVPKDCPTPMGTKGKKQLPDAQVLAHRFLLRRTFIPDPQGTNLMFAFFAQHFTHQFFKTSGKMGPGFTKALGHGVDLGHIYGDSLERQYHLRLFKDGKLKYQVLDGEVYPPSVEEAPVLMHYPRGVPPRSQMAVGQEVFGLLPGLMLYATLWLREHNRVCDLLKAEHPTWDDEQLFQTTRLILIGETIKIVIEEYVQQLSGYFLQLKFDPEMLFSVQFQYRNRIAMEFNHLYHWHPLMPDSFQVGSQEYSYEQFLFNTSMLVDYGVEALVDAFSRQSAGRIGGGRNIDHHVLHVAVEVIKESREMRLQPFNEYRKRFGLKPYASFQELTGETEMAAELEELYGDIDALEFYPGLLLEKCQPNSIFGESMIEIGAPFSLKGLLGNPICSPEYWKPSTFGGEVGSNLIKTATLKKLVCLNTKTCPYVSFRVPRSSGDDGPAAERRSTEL
As to the kind of experiment: Inhibition of COX-1 in rabbit peripheral venous blood assessed as formation of 12-hydroxyheptadecatrienoic acid after 24 hrs by HPLC in presence of calcium ionophore A23187.

A short description of data set [3]: Inhibition of 5-LOX in rabbit peripheral venous blood assessed as formation of […] after 30 mins by HPLC. It is filed as tissue-based, Oryctolagus cuniculus.
The species entered for data set [4] is Oryctolagus cuniculus. The data set can be described thus: Selectivity ratio, IC50 for COX-1in rabbit peripheral venous blood to IC50 for COX-2 in rabbit peripheral venous blood. It is filed as tissue-based.
The test system of data set [5] is Rattus norvegicus. As to the kind of experiment: Antiinflammatory activity in Wistar rat assessed as inhibition of carrageenan-induced paw edema at 9.65 mg/kg, po administered 1 hr before carrageenan challenge measured at 1 hr by plethysmometer. It is filed as functional. In general terms: Carrageenan injected into the paw causes an acute inflammation.
Data set [6] relates to Rattus norvegicus. As to the kind of experiment: Antiinflammatory activity in Wistar rat assessed as inhibition of carrageenan-induced paw edema at 9.65 mg/kg, po administered 1 hr before carrageenan challenge measured at 3 hrs by plethysmometer. It is filed as functional.
The test system of data set [7] is Rattus norvegicus. The data set can be described thus: Antiinflammatory activity in Wistar rat assessed as inhibition of carrageenan-induced paw edema at 9.65 mg/kg, po administered 1 hr before carrageenan challenge measured at 6 hrs by plethysmometer. It is filed as functional.
Data set [8] has as its system Mus musculus. The data set can be described thus: Analgesic activity in BALB/c mouse assessed as inhibition of acetic acid-induced writhing response for 15 mins at 19.30 mg/kg, po. The following applies: 0.25 h. It is filed as functional. On the technique in general: Writhing tests count abdominal constrictions after an irritant is injected.
In data set [9] the test system is Rattus norvegicus. As to the kind of experiment: Ulcerogenic effect in Wistar rat assessed as gastric ulcer area at 9.65 mg/kg, po administered for 7 days by microscopy. On the set-up: dose 9.65 mg/kg, route oral. It is filed as toxicity, organism-based, Stomach. The following applies: in vivo, 168 h.
Data set [10] concerns Rattus norvegicus. The data set can be described thus: Antiinflammatory activity in Wistar rat assessed as inhibition of carrageenan-induced paw edema at 10.47 mg/kg, po administered 1 hr before carrageenan challenge measured at 1 hr by plethysmometer. It is filed as functional.
Data set [11] has as its system Rattus norvegicus. The data set can be described thus: Antiinflammatory activity in Wistar rat assessed as inhibition of carrageenan-induced paw edema at 10.47 mg/kg, po administered 1 hr before carrageenan challenge measured at 3 hrs by plethysmometer. It is filed as functional.
The test system of data set [12] is Rattus norvegicus. The data set can be described thus: Antiinflammatory activity in Wistar rat assessed as inhibition of carrageenan-induced paw edema at 10.47 mg/kg, po administered 1 hr before carrageenan challenge measured at 6 hrs by plethysmometer. It is filed as functional.
Data set [13] relates to Mus musculus. The data set can be described thus: Analgesic activity in BALB/c mouse assessed as inhibition of acetic acid-induced writhing response for 15 mins at 20.94 mg/kg, po. It is filed as functional. The following applies: 0.25 h.
Data set [14] has as its system Rattus norvegicus. The data set can be described thus: Ulcerogenic effect in Wistar rat assessed as gastric ulcer area at 10.47 mg/kg, po administered for 7 days by microscopy. It is filed as toxicity, organism-based, Stomach. Further details: dose 10.47 mg/kg, route oral. The note with it: in vivo, 168 h.
In data set [15] the test system is Rattus norvegicus. As to the kind of experiment: Antiinflammatory activity in Wistar rat assessed as inhibition of carrageenan-induced paw edema at 13 mg/kg, po administered 1 hr before carrageenan challenge measured at 1 hr by plethysmometer. It is filed as functional.
In data set [16] the test system is Rattus norvegicus. The data set can be described thus: Antiinflammatory activity in Wistar rat assessed as inhibition of carrageenan-induced paw edema at 1 mg/kg, po administered 1 hr before carrageenan challenge measured at 3 hrs by plethysmometer. It is filed as functional.
In data set [17] the test system is Rattus norvegicus. The data set can be described thus: Antiinflammatory activity in Wistar rat assessed as inhibition of carrageenan-induced paw edema at 13 mg/kg, po administered 1 hr before carrageenan challenge measured at 6 hrs by plethysmometer. It is filed as functional.
Data set [18] relates to Mus musculus. The data set can be described thus: Analgesic activity in BALB/c mouse assessed as inhibition of acetic acid-induced writhing response for 15 mins at 26 mg/kg, po. It is filed as functional. The note with it: 0.25 h.
The subject of data set [19] is Rattus norvegicus. The data set can be described thus: Ulcerogenic effect in Wistar rat assessed as gastric ulcer area at 13 mg/kg, po administered for 7 days by microscopy. It is filed as toxicity, organism-based, Stomach. Further details: dose 13 mg/kg, route oral. The note with it: in vivo, 168 h.
Data set [20] has as its system Rattus norvegicus. As to the kind of experiment: Antiinflammatory activity in Wistar rat assessed as inhibition of carrageenan-induced paw edema at 10.12 mg/kg, po administered 1 hr before carrageenan challenge measured at 1 hr by plethysmometer. It is filed as functional.
Data set [21] concerns Rattus norvegicus. The data set can be described thus: Antiinflammatory activity in Wistar rat assessed as inhibition of carrageenan-induced paw edema at 10.12 mg/kg, po administered 1 hr before carrageenan challenge measured at 3 hrs by plethysmometer. It is filed as functional.
Data set [22] deals with Rattus norvegicus. As to the kind of experiment: Antiinflammatory activity in Wistar rat assessed as inhibition of carrageenan-induced paw edema at 10.12 mg/kg, po administered 1 hr before carrageenan challenge measured at 6 hrs by plethysmometer. It is filed as functional.
Data set [23] relates to Mus musculus. The data set can be described thus: Analgesic activity in BALB/c mouse assessed as inhibition of acetic acid-induced writhing response for 15 mins at 20.24 mg/kg, po. It is filed as functional. The note with it: 0.25 h.
For data set [24], the system named is Rattus norvegicus. As to the kind of experiment: Ulcerogenic effect in Wistar rat assessed as gastric ulcer area at 10.12 mg/kg, po administered for 7 days by microscopy. It is filed as toxicity, organism-based, Stomach. Further details: dose 10.12 mg/kg, route oral. The following applies: in vivo, 168 h.

For the compound `NS(=O)(=O)c1ccc(/C=C2/C(=O)Nc3ccccc32)cc1`, the 50% inhibitory concentration (IC50) in data set [1], in data set [2] and in data set [3] was > 50 µM in each case.
On to `CC(C)(C)c1cc(/C=C2\SC(N)=NC2=O)cc(C(C)(C)C)c1O` [DARBUFELONE MESYLATE], for which the figures for the IC50 in data set [1] and in data set [2] were 0.11 µM and 37.6 µM, respectively.
With `CS(=O)(=O)c1ccc(/C=C2/C(=O)Nc3ccc(F)cc32)cc1`, the half-maximal inhibitory concentration (IC50) in data set [1] was > 50 µM; in data set [2] it was 8.99 µM; in [3] it was 9.42 µM.
As for `NS(=O)(=O)c1ccc(/C=C2/C(=O)Nc3ccc(F)cc32)cc1`, the 50% inhibitory concentration (IC50) in [1] turned out to be 0.18 µM; in data set [2] it was 0.62 µM; in [3], 9.87 µM. Moreover, the Ratio IC50 in [4] was determined as 3.44. Further, the inhibition in vivo at 9.65 mg/kg in data set [5] was 33.3%; in [6] it was 44.4%; in [7] it was 27.4%. The inhibition in vivo at 19.3 mg/kg in [8] stood at 54%. Besides, the Activity in [9] amounted to 0.45 mm2.
Take `NS(=O)(=O)c1ccc(/C=C2/C(=O)Nc3ccc([N+](=O)[O-])cc32)cc1`: the half-maximal inhibitory concentration (IC50) was determined as 3.72 µM in [1], 0.14 µM in data set [2] and 3.06 µM in data set [3]. In addition, in data set [4], the Ratio IC50 was 0.04. For the same compound, the inhibition in vivo at 10.47 mg/kg in [10] turned out to be 9.52%; in data set [11] it was 22.2%; in [12] it was 13.7%. The inhibition in vivo at 20.94 mg/kg in data set [13] is 40.8%. The Activity in data set [14] is 0.12 mm2.
For the compound `CC(C)(C)c1cc(/C=C2\SC(=N)NC2=O)cc(C(C)(C)C)c1O.CS(=O)(=O)O` [DARBUFELONE MESYLATE], in [3], the half-maximal inhibitory concentration (IC50) was 0.61 µM. For the same compound, the Ratio IC50 in data set [4] was found to be 342. The inhibition in vivo at 13 mg/kg amounted to 19.1% in [15] and 17.6% in [17]. Further, in [16], the inhibition in vivo at 1 mg/kg is 36.1%. In [18], the inhibition in vivo at 26 mg/kg is 86.2%. In addition, in [19], the Activity amounted to 0.87 mm2.
Regarding `CS(=O)(=O)c1ccc(/C=C2/C(=O)Nc3ccc(Cl)cc32)cc1`, the figures for the IC50 in data set [1], in [2] and in data set [3] were 3.82 µM, > 50 µM and > 50 µM, respectively. The inhibition in vivo at 10.12 mg/kg in data set [20] worked out at 14.3%; in data set [21], 15.7%; in [22], 41.7%. Moreover, the inhibition in vivo at 20.24 mg/kg in data set [23] worked out at 63.3%. In addition, in data set [24], the Activity worked out at 0.88 mm2.

The values are drawn from ChEMBL document CHEMBL1287762, “Synthesis and biological evaluation of 3-[4-(amino/methylsulfonyl)phenyl]methylene-indolin-2-one derivatives as novel COX-1/2 and 5-LOX inhibitors” (Bioorg Med Chem Lett, 2010).
